Target: ATP-dependent translocase ABCB1 (Homo sapiens, UniProt P08183)
Test: TP_TRANSPORTER: transepithelial transport in Caco2 cells
Type: functional, cell-based
Settings: caco-2

Chain of ATP-dependent translocase ABCB1 (P08183 whole entry): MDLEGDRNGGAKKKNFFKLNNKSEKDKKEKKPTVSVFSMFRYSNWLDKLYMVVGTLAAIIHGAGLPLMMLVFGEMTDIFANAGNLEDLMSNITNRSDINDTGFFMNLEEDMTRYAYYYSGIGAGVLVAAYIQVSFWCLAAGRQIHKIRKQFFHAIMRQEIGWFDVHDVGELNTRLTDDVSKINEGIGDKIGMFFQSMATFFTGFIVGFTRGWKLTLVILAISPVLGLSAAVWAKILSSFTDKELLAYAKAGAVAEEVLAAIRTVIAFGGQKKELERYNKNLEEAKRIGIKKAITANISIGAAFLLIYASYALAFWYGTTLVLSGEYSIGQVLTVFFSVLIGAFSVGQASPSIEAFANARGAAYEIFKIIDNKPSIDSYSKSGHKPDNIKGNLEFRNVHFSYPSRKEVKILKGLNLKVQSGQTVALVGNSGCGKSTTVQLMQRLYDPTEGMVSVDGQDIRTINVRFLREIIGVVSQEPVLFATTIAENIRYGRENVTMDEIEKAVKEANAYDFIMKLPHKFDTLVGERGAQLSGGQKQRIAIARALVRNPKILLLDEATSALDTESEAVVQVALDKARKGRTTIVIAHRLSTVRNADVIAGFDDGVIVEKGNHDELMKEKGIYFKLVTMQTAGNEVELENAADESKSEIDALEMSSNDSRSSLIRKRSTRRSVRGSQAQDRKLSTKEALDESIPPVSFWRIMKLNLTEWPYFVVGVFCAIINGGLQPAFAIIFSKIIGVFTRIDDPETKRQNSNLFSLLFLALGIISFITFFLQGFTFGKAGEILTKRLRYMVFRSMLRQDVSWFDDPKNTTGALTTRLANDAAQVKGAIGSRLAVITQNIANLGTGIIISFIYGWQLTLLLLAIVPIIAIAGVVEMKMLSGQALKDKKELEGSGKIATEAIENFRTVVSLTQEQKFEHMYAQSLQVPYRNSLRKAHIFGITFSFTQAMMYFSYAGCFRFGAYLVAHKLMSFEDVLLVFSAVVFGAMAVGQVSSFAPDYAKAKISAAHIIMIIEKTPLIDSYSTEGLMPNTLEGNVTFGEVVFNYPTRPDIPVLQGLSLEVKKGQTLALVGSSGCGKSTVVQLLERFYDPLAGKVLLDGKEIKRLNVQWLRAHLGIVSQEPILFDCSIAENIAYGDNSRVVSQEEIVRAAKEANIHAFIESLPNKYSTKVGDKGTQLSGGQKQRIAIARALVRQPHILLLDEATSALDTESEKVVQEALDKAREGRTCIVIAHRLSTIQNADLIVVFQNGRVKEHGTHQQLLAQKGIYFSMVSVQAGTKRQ

[11CH3]n1nnc(-c2ccc3c(c2)c(C2CCN(CCN4CCNC4=O)CC2)cn3-c2ccc(F)cc2)n1
Activity: substrate [+]

[11CH3]n1cc(-c2ccc3c(c2)c(C2CCN(CCN4CCNC4=O)CC2)cn3-c2ccc(F)cc2)nn1
Activity: substrate [+]
